Test results published in the supplement of paper PMC9663587.

Experiments:
Assay in all cases: GRmax, 72 h; higher = less effect;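 note: breast cell lines in 384-well plates, nine doses across a 10^4 range, Dye Drop imaging of viable cells vs DMSO and time-zero plates, GR 0 means no net growth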
[1] = system: BT20
[2] = system: CAL51
[3] = system: CAL851
[4] = system: HCC1143
[5] = system: HCC1569
[6] = system: HCC38
[7] = system: HCC70
[8] = system: MDAMB231
[9] = system: MDAMB415
[10] = system: MDAMB453
[11] = system: UACC893
[12] = system: ZR7530

Row | SMILES | GRmax, 72 h [1] | GRmax, 72 h [2] | GRmax, 72 h [3] | GRmax, 72 h [4] | GRmax, 72 h [5] | GRmax, 72 h [6] | GRmax, 72 h [7] | GRmax, 72 h [8] | GRmax, 72 h [9] | GRmax, 72 h [10] | GRmax, 72 h [11] | GRmax, 72 h [12]
1 | CCC(=O)Nc1ccc(C(=O)Nc2ccc(Nc3ncc4c(n3)N(C)c3ccc(C)cc3C(=O)N4C)cc2)cc1 [FMF-03-145-1] | -0.201 GR | 0.0325 GR | -0.136 GR | 0.09 GR | -0.125 GR | -0.376 GR | -0.317 GR | -0.0038 GR | 0.0653 GR | 0.0994 GR | 0.127 GR | -0.0468 GR
2 | COc1cc(N2CCN(C)CC2)ccc1Nc1ncc2c(n1)N(C)c1ccccc1C(=O)N2CC(F)(F)F [FMF-03-146-1] | 0.973 GR | 0.922 GR | 0.916 GR | 0.815 GR | 1.03 GR | 0.9 GR | 0.926 GR | 0.874 GR | 0.959 GR | 0.803 GR | 0.987 GR | 0.937 GR
3 | CN1CC[C@H](c2c(O)cc(O)c3c(=O)cc(-c4ccccc4Cl)oc23)[C@H](O)C1 [Flavopiridol] (max 1 µM) | -0.639 GR | -0.0935 GR | -0.223 GR | -0.316 GR | -0.177 GR | -0.448 GR | -0.811 GR | -0.441 GR | -0.303 GR | -0.188 GR | -0.464 GR | -0.662 GR
4 | CC(C)n1nc(-c2ccc3oc(N)nc3c2)c2c(N)ncnc21 [INK128/MLN0128] (max 3.162 µM) | -0.0045 GR | 0.0529 GR | 0.016 GR | 0.0314 GR | 0.088 GR | -0.0087 GR | -0.162 GR | 0.101 GR | -0.338 GR | -0.468 GR | -0.483 GR | -0.109 GR
5 | CC(C)NC[C@@H](C(=O)N1CCN(c2ncnc3c2[C@H](C)C[C@H]3O)CC1)c1ccc(Cl)cc1 [Ipatasertib/GDC0068] (max 10 µM) | 0.102 GR | 0.387 GR | 0.471 GR | 0.751 GR | 0.234 GR | 0.706 GR | -0.262 GR | 0.925 GR | -0.698 GR | -0.155 GR | -0.794 GR | 0.438 GR
6 | CN(C)C(=O)c1cc2cnc(Nc3ccc(N4CCNCC4)cn3)nc2n1C1CCCC1 [LEE011/Ribociclib] (max 10 µM) | 0.092 GR | 0.385 GR | 1.04 GR | 0.298 GR | 0.897 GR | 0.241 GR | 1.04 GR | 0.204 GR | 0.231 GR | 0.189 GR | 0.469 GR | 0.41 GR
7 | CCNC(=O)c1noc(-c2cc(C(C)C)c(O)cc2O)c1-c1ccc(CN2CCOCC2)cc1 [Luminespib/NVP-AUY922] (max 1 µM) | -0.049 GR | -0.339 GR | -0.384 GR | -0.192 GR | -0.0081 GR | -0.209 GR | -0.583 GR | -0.178 GR | -0.305 GR | -0.499 GR | -0.898 GR | 0.1 GR
8 | CCOc1cc2ncc(C#N)c(Nc3ccc(OCc4ccccn4)c(Cl)c3)c2cc1NC(=O)/C=C/CN(C)C [Neratinib/HKI272] (max 3.162 µM) | 0.303 GR | 0.28 GR | -0.326 GR | 0.0791 GR | 0.117 GR | 0.457 GR | 0.0595 GR | -0.0957 GR | 0.0922 GR | -0.322 GR | -0.901 GR | -0.532 GR
9 | O=C(c1cc(Cc2n[nH]c(=O)c3ccccc23)ccc1F)N1CCN(C(=O)C2CC2)CC1 [Olaparib/AZD2281] (max 10 µM) | 0.606 GR | 0.36 GR | 0.387 GR | 0.456 GR | 0.565 GR | 0.425 GR | 0.719 GR | 0.618 GR | 0.816 GR | -0.0358 GR | 0.549 GR | 0.653 GR
10 | CC(=O)O[C@H]1C(=O)[C@@]2(C)[C@H]([C@H](OC(=O)c3ccccc3)[C@]3(O)C[C@H](OC(=O)[C@H](O)[C@@H](NC(=O)c4ccccc4)c4ccccc4)C(C)=C1C3(C)C)[C@]1(OC(C)=O)CO[C@@H]1C[C@@H]2O [Paclitaxel] (max 1 µM) | -0.576 GR | -0.22 GR | -0.346 GR | -0.335 GR | 0.0183 GR | -0.308 GR | -0.506 GR | -0.12 GR | -0.344 GR | 0.0356 GR | -0.384 GR | -0.597 GR
11 | CS(=O)(=O)N1CCN(Cc2cc3nc(-c4cccc5[nH]ncc45)nc(N4CCOCC4)c3s2)CC1 [Pictilisib/GDC0941] (max 10 µM) | -0.165 GR | 0.0266 GR | -0.0252 GR | -0.129 GR | -0.054 GR | 0.357 GR | -0.597 GR | 0.305 GR | -0.687 GR | -0.374 GR | -0.878 GR | -0.342 GR
12 | O=C1NC(=NCc2cccs2)SC1=Cc1ccc2ncccc2c1 [R0-3306] (max 10 µM) | -0.274 GR | 0.232 GR | -0.0866 GR | -0.114 GR | -0.166 GR | -0.239 GR | -0.204 GR | 0.206 GR | 0.914 GR | 0.0452 GR | 0.376 GR | 0.065 GR
13 | CNCc1ccc(-c2[nH]c3cc(F)cc4c3c2CCNC4=O)cc1 [Rucaparib] (max 10 µM) | 0.875 GR | 0.704 GR | 0.44 GR | 0.785 GR | 0.75 GR | 0.652 GR | 1.06 GR | 0.634 GR | 0.642 GR | 0.18 GR | 0.502 GR | 0.674 GR
